One block for each compound: values may come before it.
What was measured:
[1] = biological target: T1, PPARα (Homo sapiens, UniProt Q07869); experiment: PPARα/Gal4 transactivation system in COS-7 cells; format: cell-based; conditions: 24 hours
T1 construct: expressed in transfected cells; host or cells: COS-7 cells
T1 sequence (Q07869 239-466 limits assumed): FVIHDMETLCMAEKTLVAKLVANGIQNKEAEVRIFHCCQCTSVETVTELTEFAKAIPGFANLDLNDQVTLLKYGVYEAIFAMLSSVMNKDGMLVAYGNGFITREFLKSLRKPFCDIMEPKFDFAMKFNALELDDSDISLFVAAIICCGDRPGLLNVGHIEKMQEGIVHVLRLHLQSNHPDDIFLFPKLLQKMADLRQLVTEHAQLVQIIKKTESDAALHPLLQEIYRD
Procedure: (§1) COS-7 cells were incubated with different concentrations of the inventive compounds for 24 hours. The results are expressed as the induction factor (ratio of luminescent signal obtained with the compound and that observed without the compound) after the different treatments.
(§2) PPAR activation was tested in vitro in RK13 epitheloid or COS-7 cell lines by measuring the transcriptional activity of chimeras composed of the DNA binding domain of the yeast gal4 transcription factor and the ligand binding domain of the different PPARs. These latter results were then confirmed in cell lines according to the following protocols:
(§3) RK13 cells were from ECACC (Porton Down, UK), COS-7 cells were from the ATCC (American Type Culture Collection) and were grown in DMEM medium supplemented with 10% (VN) fetal calf serum, 100 U/ml penicillin (Gibco, Paisley, UK) and 2 mM L-glutamine (Gibco, Paisley, UK). The culture medium was changed every two days. Cells were kept at 37° C. in a humidified 95% air/5% CO2 atmosphere.
(§4) The plasmids pG5TkpGL3, pRL-CMV, pGal4-hPPARα, pGal4-hPPARγ, pGal4-hPPARδ and pGal4-φ have been described by Raspe, Madsen et al. (1999). The pGal4-mPPARα, pGal4-hPPARγ and pGal4-hPPARδ constructs were obtained by cloning into the pGal4-φ vector of PCR-amplified DNA fragments corresponding to the DEF domains of the human PPARα, PPARγ and PPARδ nuclear receptors.
(§5) RK13 cells were seeded in 24-well culture dishes at 5×10^4 cells/well, COS-7 cells in 96-well culture dishes at 5×10^4 cells/well and transfected for 2 hours with the reporter plasmid pG5TkpGL3 (50 ng/well), the expression vectors pGal4-φ, pGal4-mPPARα, pGal4-hPPARα, pGal4-hPPARγ, pGal4-hPPARδ (100 ng/well) and the transfection efficiency control vector pRL-CMV (1 ng/well) according to the previously described protocol (Raspe, Madsen et al. 1999), then incubated for 36 hours with the test compounds. At the end of the experiment, the cells were lysed (Gibco, Paisley, UK) and luciferase activity was determined with a Dual-Luciferase™ Reporter Assay System kit (Promega, Madison, Wis., USA) for RK13 cells and Steady Glow Luciferase (Promega) for COS-7 cells according to the supplier's instructions as previously described. The protein content of the cell extracts was then measured with the Bio-Rad Protein Assay (Bio-Rad, Munich, Germany) as directed by the supplier.

[2] = test system: LDL; experiment: Protection against LDL oxidation by copper (conjugated diene formation); format: biochemical; conditions: for kinetics of LDL oxidation (lag phase): FIG. 5a, no control value printed; for LDL oxidation rate: FIG. 5b, absence of compounds 2; for rate of diene formation: FIG. 2b, copper alone 2.2; for rate of LDL oxidation: FIG. 8b, absence of compounds 2.5; for diene formation rate: FIG. 4b, absence of compounds 1.9
Procedure: Unless otherwise indicated, the reagents were from Sigma (St Quentin, France). LDL were prepared according to the method described by Lebeau et al. (Lebeau, Furman et al. 2000).
The solutions of test compounds were prepared at 10^−2 M concentration in bicarbonate buffer (pH 9) and diluted in PBS to obtain final concentrations ranging from 0.1 to 100 μM
Prior to oxidation, EDTA was removed from the LDL preparation by dialysis. Oxidation then took place at 30° C. by adding 100 μl of 16.6 μM CuSO4 solution to 160 μL of LDL (125 μg protein/ml) and 20 μl of a test compound solution. The formation of dienes, the species under observation, was followed by measuring optical density at 232 nm in the samples treated with the compounds in the presence or absence of copper. Optical density at 232 nm was measured every 10 minutes for 8 hours in a thermostated spectrophotometer (Tecan Ultra 380). The analyses were performed in triplicate. The compounds were considered to have antioxidant activity when they induced a longer lag phase and reduced the rate of oxidation and the amount of dienes formed in comparison with the control sample.

[3] = biological target: T2, PPARγ (Homo sapiens, UniProt P37231); experiment: PPARγ/Gal4 transactivation system in COS-7 cells; format: cell-based; conditions: 24 hours
T2 construct: expressed in transfected cells; host or cells: COS-7 cells
T2 sequence (P37231 238-503 limits assumed): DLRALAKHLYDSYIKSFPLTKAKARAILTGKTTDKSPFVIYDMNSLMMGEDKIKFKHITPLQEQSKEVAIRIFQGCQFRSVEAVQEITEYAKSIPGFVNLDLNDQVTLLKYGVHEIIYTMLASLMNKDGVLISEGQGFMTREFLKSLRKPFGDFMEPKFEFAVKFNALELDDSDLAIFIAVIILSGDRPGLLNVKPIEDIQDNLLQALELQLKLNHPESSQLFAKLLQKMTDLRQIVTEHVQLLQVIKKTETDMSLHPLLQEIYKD
Procedure: as §1, §2, §3, §4, §5

[4] = FIG. 5c, 10^−4M, absence of compounds 386
[5] = FIG. 7a, 10^−4M, absence of compounds 67.3 minutes
[6] = FIG. 2a, 10^−4M, copper alone 132 minutes
[7] = FIG. 2c, 10^−4M, copper alone 511
[8] = FIG. 8a, 10^−4M, absence of compounds 67.3 minutes
[9] = FIG. 4a, 10^−4M, copper alone 61 minutes
[10] = FIG. 4c, 10^−4M, absence of compound 370.9

Induction factor ([1]; 0.003 μM): 1.41
Induction factor ([1]; 0.01 μM): 1.54
Induction factor ([1]; 0.03 μM): 2.53
Induction factor ([1]; 0.1 μM): 7.47
Induction factor ([1]; 0.3 μM): 15.51
Induction factor ([1]; 1 μM): 24.33
Induction factor ([1]; 3 μM): 23.70
Induction factor ([1]; 10 μM): 21.03
Structure (SMILES): COc1ccc(C(=O)/C=C/c2cc(C)c(OC(C)(C)C(=O)O)c(C)c2)cc1F [compound 35, 1-(4-Methoxy-3-fluorophenyl)-3-(4-carboxydimethylmethyloxy-3,5-dimethylphenyl)prop-2-en-1-one]

Structure (SMILES): Cc1cc(C)c(C(=O)/C=C/c2cc(C)c(OC(C)(C)C(=O)O)c(C)c2)cc1C [compound 25, 1-(2,4,5-Trimethylphenyl)-3-(4-carboxydimethylmethyloxy-3,5-dimethylphenyl)prop-2-en-1-one]
kinetics of LDL oxidation (lag phase) ([2]; 10^−4M): 87.6 min
LDL oxidation rate ([2]; 10^−4M): 1.6 nmol/min/mg
total amount of dienes formed [2, 4]: 365 nmol/mg

Structure (SMILES): Cc1cc(/C=C/C(=O)c2ccc(OCCC3CCCCC3)cc2)cc(C)c1OC(C)(C)C(=O)O [compound 11, 1-(4-Cyclohexylethyloxyphenyl)-3-(4-carboxydimethylmethyloxy-3,5-dimethylphenyl)prop-2-en-1-one]
lag phase (maximum) ([2]; FIG. 3a, 3.3×10^−5M, absence of compound 87.2 minutes): 210 min
lag phase ([2]; FIG. 3a, 10^−6 M, absence of compound 87.2 minutes): 101.5 min

Structure (SMILES): COc1ccc(C(=O)/C=C/c2cc(C)c(OC(C)(C)C(=O)O)c(C)c2)cc1C(F)(F)F [compound 47, 1-(4-Methoxy-3-trifluoromethylphenyl)-3-(4-carboxydimethylmethyloxy-3,5-dimethylphenyl)prop-2-en-1-one]
lag phase [2, 5]: 126.5 min

Induction factor ([3]; 1 μM): 4.12
Induction factor ([3]; 10 μM): 6.83
Induction factor ([1]; 1 μM): 5.48
Induction factor ([1]; 10 μM): 7.01
Structure (SMILES): Cc1cc(/C=C/C(=O)c2ccc(OCCCCCC3CCSS3)cc2)cc(C)c1OC(C)(C)C(=O)O (racemic) [compound 6, 1-(4-((R,S)-5-[1,2]dithiolan-3-ylpentyloxy)phenyl)-3-(4-carboxydimethylmethyloxy-3,5-dimethylphenyl)prop-2-en-1-one]
lag phase [2, 6]: 205 min
rate of diene formation ([2]; 10^−4M): 1.7 nmol/min/mg
total amount of dienes formed [2, 7]: 443 nmol/mg

Structure (SMILES): COc1c(C)cc(C(=O)/C=C/c2cc(C)c(OC(C)(C)C(=O)O)c(C)c2)cc1C [compound 17, 1-(4-Methoxy-3,5-dimethylphenyl)-3-(4-carboxydimethylmethyloxy-3,5-dimethylphenyl)prop-2-en-1-one]
lag phase [2, 8]: 148 min
rate of LDL oxidation ([2]; 10^−4M): 1.8 nmol/min/mg

Induction factor ([3]; 1 μM): 2.13
Induction factor ([3]; 10 μM): 2.74
Induction factor ([1]; 1 μM): 15.67
Induction factor ([1]; 10 μM): 12.66
Structure (SMILES): CSc1ccc(C(=O)/C=C/c2cc(Br)c(OC(C)(C)C(=O)O)c(Br)c2)cc1 [compound 8, 1-(4-Methylthiophenyl)-3-(4-carboxydimethylmethyloxy-3,5-dibromophenyl)prop-2-ene-1-one]
lag phase [2, 6]: 169 min
rate of diene formation ([2]; 10^−4M): 1.7 nmol/min/mg
total amount of dienes formed [2, 7]: 474 nmol/mg

Induction factor ([3]; 0.0003 μM): 1.02
Induction factor ([3]; 0.001 μM): 1.43
Induction factor ([3]; 0.003 μM): 2.86
Induction factor ([3]; 0.01 μM): 3.48
Induction factor ([3]; 0.03 μM): 5.04
Induction factor ([3]; 0.1 μM): 6.17
Induction factor ([3]; 0.3 μM): 6.84
Induction factor ([3]; 1 μM): 7.24
Induction factor ([3]; 3 μM): 6.98
Induction factor ([1]; 0.0003 μM): 0.92
Induction factor ([1]; 0.001 μM): 1.11
Induction factor ([1]; 0.003 μM): 1.33
Induction factor ([1]; 0.01 μM): 2.35
Induction factor ([1]; 0.03 μM): 4.22
Induction factor ([1]; 0.1 μM): 7.16
Induction factor ([1]; 0.3 μM): 8.08
Induction factor ([1]; 1 μM): 8.35
Induction factor ([1]; 3 μM): 7.15
Structure (SMILES): Cc1cc(/C=C/C(=O)c2ccc(OCCSC3CCCCC3)cc2)cc(C)c1OC(C)(C)C(=O)O [compound 23, 1-(4-Cyclohexylthioethyloxyphenyl)-3-(4-carboxydimethylmethyloxy-3,5-dimethylphenyl)prop-2-en-1-one]
lag phase [2, 9]: 96.4 min
diene formation rate ([2]; 10^−4M): 1.3 nmol/min/mg of LDL
total amount of dienes formed [2, 10]: 340.3 nmol/mg of LDL

Structure (SMILES): COc1ccc(OC)c(C(=O)/C=C/c2cc(C)c(OC(C)(C)C(=O)O)c(C)c2)c1 [compound 41, 1-(2,5-Dimethoxyphenyl)-3-(4-carboxydimethylmethyloxy-3,5-dimethylphenyl)prop-2-en-1-one]
lag phase [2, 5]: 100 min
total amount of dienes formed ([2]; FIG. 7c, 10^−4M, absence of compounds 432.5): 403 nmol/mg of LDL

Structure (SMILES): CCCCCCOc1c(C)cc(C(=O)/C=C/c2cc(C)c(OC(C)(C)C(=O)O)c(C)c2)cc1C [compound 19, 1-(4-Hexyloxy-3,5-dimethylphenyl)-3-(4-carboxydimethylmethyloxy-3,5-dimethylphenyl)prop-2-en-1-one]
lag phase [2, 9]: 92.5 min
diene formation rate ([2]; 10^−4M): 1.6 nmol/min/mg of LDL
total amount of dienes formed [2, 10]: 346.6 nmol/mg of LDL

Induction factor ([1]; 0.01 μM): 1.54
Induction factor ([1]; 0.03 μM): 2.54
Induction factor ([1]; 0.1 μM): 7.89
Induction factor ([1]; 0.3 μM): 17.25
Induction factor ([1]; 1 μM): 19.77
Induction factor ([1]; 3 μM): 16.89
Structure (SMILES): COc1ccc(C(=O)/C=C/c2cc(C)c(OC(C)(C)C(=O)O)c(C)c2)cc1C [compound 37, 1-(4-Methoxy-3-methylphenyl)-3-(4-carboxydimethylmethyloxy-3,5-dimethylphenyl)prop-2-en-1-one]
lag phase ([2]; FIG. 6a, 10^−4M, absence of compound 56 minutes): 106 min
oxidation rate ([2]; FIG. 6b, 10^−4M, absence of compound 2): 1.8 nmol/min/mg of LDL
total amount of dienes formed ([2]; FIG. 6c, 10^−4M, absence of compound 360.0): 326.9 nmol/mg of LDL

Structure (SMILES): Cc1cc(C(=O)/C=C/c2cc(C)c(OC(C)(C)C(=O)O)c(C)c2)cc(C)c1OCCSC1CCCCC1 [compound 27, 1-(4-Cyclohexylthioethyloxy-3,5-dimethylphenyl)-3-(4-carboxydimethylmethyloxy-3,5-dimethylphenyl)prop-2-en-1-one]
kinetics of LDL oxidation (lag phase) ([2]; 10^−4M): 170.8 min
LDL oxidation rate ([2]; 10^−4M): 0.8 nmol/min/mg
total amount of dienes formed [2, 4]: 374 nmol/mg

Structure (SMILES): Cc1cc(C(=O)/C=C/c2cc(C)c(OC(C)(C)C(=O)O)c(C)c2)cc(C)c1OCCN1CCOCC1 [compound 43, 1-(3,5-Dimethyl-4-(morpholin-4-ylethyloxy)phenyl)-3-(4-carboxydimethylmethyloxy-3,5-dimethylphenyl)prop-2-en-1-one]
lag phase [2, 8]: 97 min
rate of LDL oxidation ([2]; 10^−4M): 2.2 nmol/min/mg

Source: patent US7547729B2, “1,3-diphenylprop-2-en-1-one derivative compounds, preparation method thereof and uses of same” (Genfit, priority 2004, dated 2009)
